What was measured:
Assay type in all cases: binding
[1] = biological target: skeletal muscle myosin S2 peptide (MYH2) (Homo sapiens, UniProt Q9UKX2); assay: FRET of skeletal muscle myosin S2 peptide dimer with anti-S2 peptides; parameters: A 19 residue peptide of the S2 region of MYH2 was matched to the previously synthesized S2 peptide; host or cells: chemical synthesis; details: Skeletal peptide with Stabilizer
Excerpt: MYH2 gene codes for human skeletal muscle myosin expressed in fast type IIA muscle fibers. This myosin isoform can be found within extraocular muscle. A 19 residue peptide of the S2 region of MYH2 was matched to the previously synthesized S2 peptide of cardiac isoform and chemically synthesized […]. Generated amino acid sequence used is as follow: residues 925 to 945
(§1) Resonance energy probes (donor and acceptor) were covalently attached to synthetic myosin S2 peptides of cardiac muscle, E930del cardiac muscle, E924K cardiac muscle, smooth muscle, and skeletal muscle (Aboonasrshiraz, N., 2020).
(§2) Acceptor probe was conjugated to muscle myosin S2 peptides at N-terminus. Muscle myosin S2 peptides were dissolved in 20 mM HEPES buffer at pH 8.0. And FITC was dissolved in few drops of N, N dimethyl formamide. […]
(§3) In FRET assay, Fluorescein Isothiocyanate (FITC) functioned as fluorescent acceptor probe and Terbium Diethylene Triamine Pentaacetic Acid-Cytosine (Lanthanide-DTPA-Cytosine) functioned as donor probe. […] Lifetime of donor probe was measured in milliseconds.
Like cardiac muscle myosin S2^pep, dilution by decreasing the concentration of dimer skeletal muscle myosin S2^pep was performed and further was treated with different concentrations of anti-S2 peptides (FIG. 28A, 28B). […] Calculated separation distance in presence of the stabilizer peptide was 3.58 nm.

[2] = biological target: T1, smooth muscle myosin S2 peptide (MYH11) (Homo sapiens, UniProt P35749); assay: FRET of smooth muscle myosin S2 peptide dimer with anti-S2 peptides; details: Smooth peptide with Stabilizer
T1 construct: A 21 residue peptide of the S2 region of MYH11 was matched to the previously synthesized S2 peptide; host or cells: chemical synthesis
T1 sequence (P35749 926-946): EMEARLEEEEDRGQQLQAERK
Excerpt: Human smooth muscle myosin heavy chain (MYH11) is a part of the non-striated muscle. This gene can be found within esophagus, endometrium, duodenum, etc. A 21 residue peptide of the S2 region of MYH11 was matched to the previously synthesized S2 peptide of cardiac isoform and chemically synthesized 926-946. Generated amino acid sequence used is as follow: • Smooth: NH2-[…]—COOH (SEQ ID NO:11)
as §1
as §2, with “formamide. Lastly, FITC and muscle myosin S2 peptide was reacted together in 1 to 1 molar ratio and was let to react for 120 minutes at room temperature.” for “formamide.”
as §3
The specificity of peptides were later tested on the myosin S2 of the smooth muscle (MYH11). […] Calculated separation distance in presence of the stabilizer peptide was 3.34 nm.

[3] = biological target: T2, cardiac muscle myosin S2 mutant peptide E930del (MYH7) (Homo sapiens, UniProt P12883, DEL930-930); assay: FRET of E930del mutant cardiac myosin S2 peptide dimer with stabilizer
T2 construct: cardiac muscle myosin S2 peptides region 921 to 939; host or cells: chemical synthesis
Excerpt: This mutation cause mechanical instability and unstable coiled coil. Again the sequence of this mutation was obtained using PDB. An 18 residue peptide of this region was chemically synthesized. Generated amino acid sequence used is as follow: • E930del: NH2-[…]—COOH (SEQ ID NO:8)
as §1
Acceptor probe was conjugated to muscle myosin S2 peptides at N-terminus. Muscle myosin S2 peptides were dissolved in 20 mM HEPES buffer at pH 8.0. And FITC was dissolved in few drops of N, N dimethyl formamide. Lastly, FITC and muscle myosin S2 peptide was reacted together in 1 to 1 molar ratio and was let to react for 120 minutes at room temperature. The FITC conjugated S2 peptides were purified using […]. […]
as §3
In FRET assay, like E924K, Edel930 was treated with different concentrations of the stabilizer. […] Calculated separation distance in presence of the stabilizer peptide was 3.38 nm.

SMILES: C[C@H](NC(=O)[C@H](CCCCN)NC(=O)[C@H](Cc1ccccc1)NC(=O)[C@H](CCCCN)NC(=O)[C@H](CCCCN)NC(=O)[C@H](CCCCN)NC(=O)[C@H](CCCCN)NC(=O)[C@H](CCCCN)NC(=O)[C@H](CCCCN)NC(=O)[C@H](CCCCN)NC(=O)[C@@H](N)CCCCN)C(=O)N[C@@H](CCCCN)C(=O)N[C@@H](CCCCN)C(=O)N[C@@H](CCCCN)C(=O)N[C@@H](CCCCN)C(=O)N[C@@H](CCCCN)C(=O)N[C@@H](CCCCN)C(=O)O [Stabilizer]
- TD (donor lifetime without acceptor) [1]: 1.73E−03
- TD (donor lifetime without acceptor) [2]: 1.73E−03
- TD (donor lifetime without acceptor) [3]: 1.89E−03

Reference: US12617818B2, “Compositions and methods for modulating myosin subfragment-2 coiled coil stability and methods for using them” (UNIVERSITY OF NORTH TEXAS, priority 2020, dated 2026)
